According to article PMC6269792, “Arylsulfonylamino-Benzanilides as Inhibitors of the Apical Sodium-Dependent Bile Salt Transporter (SLC10A2)” (Molecules, 2013):

Key:
[1] = target: T1, Human ASBT (Homo sapiens, UniProt Q12908); assay: ASBT inhibition assay: [3H]-taurocholic acid uptake in HEK293T cells transiently transfected with human ASBT; assay type: cell-based; settings: for inhibition at 10 µM: HEK-293T; for IC50: inhibitor concentration that gives 50% taurocholate uptake compared to no inhibitor control
T1 construct: expressed in transfected cells; host or cells: HEK293T
T1 sequence (Q12908 1-348): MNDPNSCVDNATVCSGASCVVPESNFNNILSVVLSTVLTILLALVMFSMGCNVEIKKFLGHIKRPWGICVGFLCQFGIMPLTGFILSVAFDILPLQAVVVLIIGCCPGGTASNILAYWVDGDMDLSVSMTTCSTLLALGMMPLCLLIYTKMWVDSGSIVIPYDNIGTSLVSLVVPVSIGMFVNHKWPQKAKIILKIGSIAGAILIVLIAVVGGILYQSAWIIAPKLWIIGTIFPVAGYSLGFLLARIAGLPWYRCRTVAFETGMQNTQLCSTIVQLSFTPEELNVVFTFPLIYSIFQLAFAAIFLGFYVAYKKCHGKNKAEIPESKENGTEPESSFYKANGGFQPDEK
Method: In vitro inhibitory activity of all target compounds against ASBT was evaluated using a radioisotope-based assay. All the newly synthesized derivatives were initially tested at 10 μM concentration (Table 1).
HEK293T was obtained from the American Type Culture Collection (Manassas, VA, USA), and grown in MEM supplemented with 100 U/mL penicillin and […] streptomycin and 10% heat-inactivated fetal bovine serum. Human ASBT expression construct was prepared as previously described. HEK293T cells were seeded in 12 well plates and transiently transfected with 0.5 μg/well pcDNA3.1/ASBT or negative control plasmid pcDNA3.1 using lipofactamine 2000 (Invitrogen, Carlsbad, CA, USA) according to the manufacturer’s instructions. Twenty-four hours after transfection, HEK293T cells were assayed for taurocholic acid uptake as previously described with minor modifications. […] To terminate the transport process, the plates were chilled on ice and the cells were immediately washed with ice-cold buffer three times. Cells were lysed with 0.3 mL lysis buffer (0.5% triton x-100) and shaken vigorously for 20 min. The radioactivity of the cell lysate was counted using a MicroBeta^2 Liquid Scintillation and Luminescence Counter (PerkinElmer Life Sciences). Protein concentration of the lysate was used to normalize uptake activity.
The inhibition rate was calculated using the following formula: Inhibition Rate (%) = [(1 − (A − C)/(B − C)] × 100
A, [^3H] uptake value of test compound in [^3H]-TCA buffer added to pcDNA3.1/ASBT transfected cells; B, [^3H] uptake value of DMSO (without inhibitor) in [^3H]-TCA buffer added to pcDNA3.1/ASBT transfected cells; C, [^3H] uptake value of Blank sample (DMSO) in [^3H]-TCA buffer added to empty vector (pcDNA3.1) transfected cells.

SMILES	melting point [°C]	inhibition at 10 µM [1] [%]	IC50 [1] [µM]
O=C(Nc1ccc(F)c(Cl)c1)c1ccccc1NS(=O)(=O)c1cccc([N+](=O)[O-])c1 [Compound 5a2, N-(3-Chloro-4-fluorophenyl)-2-(3-nitrophenylsulfonamido)benzamide]	203.4 to 204.1	95.4 ± 3.3	1.32 ± 0.28
O=C(Nc1cccc(OC(F)F)c1)c1ccccc1NS(=O)(=O)c1cccc([N+](=O)[O-])c1 [Compound 5a3, N-(3-(Difluoromethoxy)phenyl)-2-(3-nitrophenylsulfonamido)benzamide]	127.4 to 128.2	89 ± 2.6	2.84 ± 0.52
O=C(Nc1cccc(OC(F)(F)F)c1)c1ccccc1NS(=O)(=O)c1cccc([N+](=O)[O-])c1 [Compound 5a4, 2-(3-Nitrophenylsulfonamido)-N-(3-(trifluoromethoxy)phenyl)benzamide]	141.4 to 142	83.8 ± 3.4	1.23 ± 0.12
O=C(Nc1cc(F)cc(F)c1)c1ccccc1NS(=O)(=O)c1cccc([N+](=O)[O-])c1 [Compound 5a5, N-(3,5-Difluorophenyl)-2-(3-nitrophenylsulfonamido)benzamide]	181.1 to 181.9	21.6 ± 4.1	
COc1ccc(NC(=O)c2ccccc2NS(=O)(=O)c2cccc([N+](=O)[O-])c2)cc1O [Compound 5a6, N-(3-Hydroxy-4-methoxyphenyl)-2-(3-nitrophenylsulfonamido)benzamide]	168.9 to 170.1	32.1 ± 3.3	
O=C(Nc1cc(Cl)cc(Cl)c1)c1ccccc1NS(=O)(=O)c1cccc([N+](=O)[O-])c1 [Compound 5a7, N-(3,5-Dichlorophenyl)-2-(3-nitrophenylsulfonamido)benzamide]	209.9 to 210.4	56.3 ± 2.8	
O=C(Nc1cccc(Cl)c1)c1ccccc1NS(=O)(=O)c1cccc([N+](=O)[O-])c1 [Compound 5a9, N-(3-Chlorophenyl)-2-(3-nitrophenylsulfonamido)benzamide]	167.3 to 168.1	46.9 ± 3.6	
Cc1ccc(NC(=O)c2ccccc2NS(=O)(=O)c2cccc([N+](=O)[O-])c2)cc1C(F)(F)F [Compound 5a10, N-(4-Methyl-3-(trifluoromethyl)phenyl)-2-(3-nitrophenylsulfonamido)benzamide]	166.4 to 167.4	90.7 ± 4.2	1.49 ± 0.09
O=C(Nc1ccc(F)c(Cl)c1)c1cccc(NS(=O)(=O)c2cccc([N+](=O)[O-])c2)c1 [Compound 5b1, N-(3-Chloro-4-fluorophenyl)-3-(3-nitrophenylsulfonamido)benzamide]	161.3 to 162.6	66.3 ± 5	
O=C(Nc1cccc(OC(F)F)c1)c1cccc(NS(=O)(=O)c2cccc([N+](=O)[O-])c2)c1 [Compound 5b2, N-(3-(Difluoromethoxy)phenyl)-3-(3-nitrophenylsulfonamido)benzamide]	159.8 to 160.6	30.6 ± 4.3	
O=C(Nc1ccc(Cl)c(Cl)c1)c1cccc(NS(=O)(=O)c2cccc([N+](=O)[O-])c2)c1 [Compound 5b3, N-(3,4-dichlorophenyl)-3-(3-nitrophenylsulfonamido)benzamide]	192.5 to 193.7	62.4 ± 2.9	
O=C(Nc1cccc(OC(F)(F)F)c1)c1ccc(NS(=O)(=O)c2cccc([N+](=O)[O-])c2)cc1 [Compound 5c1, 4-(3-Nitrophenylsulfonamido)-N-(3-(trifluoromethoxy)phenyl)benzamide]	177.3 to 178.2	29.6 ± 3.5	
O=C(Nc1ccc(Cl)c(Cl)c1)c1ccc(NS(=O)(=O)c2cccc([N+](=O)[O-])c2)cc1 [Compound 5c2, N-(3,4-Dichlorophenyl)-4-(3-nitrophenylsulfonamido)benzamide]	189.2 to 190.5	34.8 ± 3.7	
O=C(Nc1ccc(Cl)cc1Cl)c1ccccc1NS(=O)(=O)c1ccc([N+](=O)[O-])cc1 [Compound 5d1, N-(2,4-Dichlorophenyl)-2-(4-nitrophenylsulfonamido)benzamide]	220.6 to 221.3	66.9 ± 3.5	
O=C(Nc1ccc(F)c(Cl)c1)c1ccccc1NS(=O)(=O)c1ccc([N+](=O)[O-])cc1 [Compound 5d2, N-(3-Chloro-4-fluorophenyl)-2-(4-nitrophenylsulfonamido)benzamide]	226.4 to 227.1	75.5 ± 4.4	
Cc1ccc(NC(=O)c2ccccc2NS(=O)(=O)c2ccc([N+](=O)[O-])cc2)cc1C(F)(F)F [Compound 5d3, N-(4-Methyl-3-(trifluoromethyl)phenyl)-2-(4-nitrophenylsulfonamido)benzamide]	198.8 to 199.6	73.7 ± 3.8	
O=C(Nc1cccc(OC(F)F)c1)c1ccccc1NS(=O)(=O)c1ccc([N+](=O)[O-])cc1 [Compound 5d4, N-(3-(Difluoromethoxy)phenyl)-2-(4-nitrophenylsulfonamido)benzamide]	203.9 to 205	58.8 ± 4.3	
O=C(Nc1cccc(OC(F)(F)F)c1)c1ccccc1NS(=O)(=O)c1ccc([N+](=O)[O-])cc1 [Compound 5d5, 2-(4-Nitrophenylsulfonamido)-N-(3-(trifluoromethoxy)phenyl)benzamide]	198.8 to 199.4	66.7 ± 3.9	
O=C(Nc1ccc(Cl)c(Cl)c1)c1ccccc1NS(=O)(=O)c1ccc([N+](=O)[O-])cc1 [Compound 5d6, N-(3,4-Dichlorophenyl)-2-(4-nitrophenylsulfonamido)benzamide]	243.4 to 243.6	73.9 ± 2.2	
O=C(Nc1ccc(Cl)cc1Cl)c1ccccc1NS(=O)(=O)c1cccc(F)c1 [Compound 5e1, N-(2,4-Dichlorophenyl)-2-(3-fluorophenylsulfonamido)benzamide]	146.3 to 147.6	42.6 ± 3.4	
O=C(Nc1ccc(F)c(Cl)c1)c1ccccc1NS(=O)(=O)c1cccc(F)c1 [Compound 5e2, N-(3-Chloro-4-fluorophenyl)-2-(3-fluorophenylsulfonamido)benzamide]	178.6 to 179.9	63.2 ± 3.8	
Cc1ccc(NC(=O)c2ccccc2NS(=O)(=O)c2cccc(F)c2)cc1C(F)(F)F [Compound 5e3, 2-(3-Fluorophenylsulfonamido)-N-(4-methyl-3-(trifluoromethyl)phenyl)benzamide]	168.8 to 169.6	57.6 ± 2.9	
O=C(Nc1cccc(OC(F)(F)F)c1)c1ccccc1NS(=O)(=O)c1cccc(F)c1 [Compound 5e4, 2-(3-Fluorophenylsulfonamido)-N-(3-(trifluoromethoxy)phenyl)benzamide]	166.8 to 168.7	45.7 ± 3.6	
O=C(Nc1ccc(Cl)c(Cl)c1)c1ccccc1NS(=O)(=O)c1cccc(F)c1 [Compound 5e5, N-(3,4-Dichlorophenyl)-2-(3-fluorophenylsulfonamido)benzamide]	179.1 to 180.6	40.6 ± 2.8	
COc1cccc(S(=O)(=O)Nc2ccccc2C(=O)Nc2ccc(Cl)cc2Cl)c1 [Compound 5f1, N-(2,4-Dichlorophenyl)-2-(3-methoxyphenylsulfonamido)benzamide]	138.8 to 139.7	21.2 ± 3	
COc1cccc(S(=O)(=O)Nc2ccccc2C(=O)Nc2ccc(F)c(Cl)c2)c1 [Compound 5f2, N-(3-Chloro-4-fluorophenyl)-2-(3-methoxyphenylsulfonamido)benzamide]	181.9 to 183.2	59.5 ± 3.6	
COc1cccc(S(=O)(=O)Nc2ccccc2C(=O)Nc2ccc(C)c(C(F)(F)F)c2)c1 [Compound 5f3, 2-(3-Methoxyphenylsulfonamido)-N-(4-methyl-3-(trifluoromethyl)phenyl)benzamide]	165.7 to 166.6	43 ± 3.2	
COc1cccc(S(=O)(=O)Nc2ccccc2C(=O)Nc2cccc(OC(F)(F)F)c2)c1 [Compound 5f4, 2-(3-Methoxyphenylsulfonamido)-N-(3-(trifluoromethoxy)phenyl)benzamide]	149.3 to 150.8	25.8 ± 2.1	
O=C(Nc1ccc(Cl)c(Cl)c1)c1ccccc1NS(=O)(=O)c1cccc(OC(F)(F)F)c1 [Compound 5g5, N-(3,4-Dichlorophenyl)-2-(3-(trifluoromethoxy)phenylsulfonamido)benzamide]		80.8 ± 4.3	1.22 ± 0.2
